In general, mortality refers to the share of the test organisms that died.

Here are results for one compound from patent publication US20170006866A1, “PHYTOSANITARY COMPOSITION” (INSTITUT NATIONAL DE LA RECHERCHE AGRONOMIQUE-INRA, priority 2014, published 2017).

Holding throughout (type): in vivo
One data set relates to Acyrthosiphon pisum. The data set can be described thus: Toxicity on larval growth (cumulative larval mortality on supplemented Ap3 medium), pea aphid. How it is done:
(§1) b) Measurement of the toxicity of chicoric acid or caftaric acid on larval growth of the green peach aphid (Myzus persicae) and the pea aphid (Acyrthosiphon pisum)
(§2) The objective is to quantify the toxic effect of chicoric acid or caftaric acid on the aphid for the period of larval growth thereof, i.e. 8 to 10 days for Myzus persicae and Acyrthosiphon pisum at 19° C. The molecule is added at different concentrations to the Ap3 control nutrient medium. The dose “0” corresponds to Ap3 medium alone.
(§3) The medium (75 μl) is poured between two UV-sterilized Parafilm® stretched onto a cylindrical PVC support (h=1.5 cm, d=2 cm), under sterile conditions.
(§4) On the Day D0, 20 neonate larvae are deposited inside the cylinder, which is then turned over and applied to a square of Parafilm©. The dishes are placed in filtered light (16 hours day/8 hours night) and in a chamber at 19° C. The fixation percentage is recorded after 1 hour as a short-term phagostimulation indicator and to check that no anomaly occurred during aphid deposition. The larval mortality is recorded daily at the end of the day. […] On the day of the imaginal moult thereof, the aphids having reached the adult aptera stage are deposited successively on a precision balance (d=0.01 mg) and the cumulative weights are recorded for each concentration of each of the two molecules tested. The individual weights are calculated subsequently. […]

Data set [1] relates to Myzus persicae. Nature of the data set: Analysis of repellent effect: choice test between control Ap3 medium and test medium, phagostimulation index. Conditions: Myzus persicae larvae, doses 0 to 1 mM in Ap3 medium. The source says: a) Analysis of repellent effect: the method used is that developed by Yvan Rahbe (Rahbé & Febvay (1993) Entomologia Experimentalis et Applicata 67: 149-160; Chen (1996) Thesis submitted to Institut National des Sciences Appliquées, Lyon, France: 158 p) within the scope of research on the chemical determinants of the resistance of plants to various species of aphids (Aphis gossypii, Acyrthosiphon pisum), and adapted to the green aphid Myzus persicae.
The objective is to evaluate the attractive or repellent nature of a candidate molecule, at different concentrations, either with respect to control base medium (dose “0”), or with respect to another substance. […]
The medium (35 μl) is poured between two Parafilm® membranes stretched onto an Eppendorf® cone. […] The following morning, the number of aphids fixed on each medium is then recorded. […] A phagostimulation index, representing the degree of appetence of the test medium for the aphid, is calculated as follows: […]

Data set [2] deals with Myzus persicae. Nature of the data set: Toxicity on larval growth (cumulative larval mortality on supplemented Ap3 medium), green peach aphid. Conditions: larval growth D1-D7. How it is done: as §1, §2, §3, §4

For the compound `O=C(/C=C/c1ccc(O)c(O)c1)O[C@@H](C(=O)O)[C@@H](OC(=O)/C=C/c1ccc(O)c(O)c1)C(=O)O` [chicoric acid, dicaffeyl tartaric acid], in the data set on Acyrthosiphon pisum (Acyrthosiphon pisum larval growth), the “dose from which a very significant toxic effect (p<0.001) is observed” value is at least 0.5 mM. Moreover, the mortality at 500 µM with Acyrthosiphon pisum (Acyrthosiphon pisum, read-out: larval mortality) is over 80%. Moreover, in the data set with Myzus persicae [1] (15 hours at 19° C.), the “dose from which a highly significant repellent effect is displayed” value was at least 62.5 µM. Further, the “repellent effect (result in words)” value with Myzus persicae [1] is “significant repellent effect”. The larval mortality with Myzus persicae [2] (from 0.125 mM in Ap3 medium) is on record as about 80%; with Myzus persicae [2] (from 0.25 mM in Ap3 medium), 100%.
